According to patent US9216169B2, “Pharmaceutical composition comprising candesartan or ester thereof and chlortalidone, and use thereof” (TIANJIN INSTITUTE OF PHARMACEUTICAL RESEARCH, priority 2011, dated 2015):
“And” between values parts separate entries of the source, which are not always exact repeats. Identical values can stand only once.

What was measured:
patients = conditions: study in 1714 patients; cited from earlier work
[1] = 25-50 mg/d of hydrochlorothiazide; clinical studies; cited from earlier work
[2] = test system: Spontaneously hypertensive rats (SHR); assay: SBP of SHR by Tail-Cuff method, continuous intragastric administration for 8 days (Examples 1-7); type: in vivo, rat; conditions: for maximum reduction of the blood pressure / SBP / SBP difference value compared with the basic value / AUC0-24h (area under blood pressure reduction-time curve): Can 0.36 mg/kg i.g. 8 days; for maximum reduction of the blood pressure: 0-24 h after last administration; for AUC0-24h (area under blood pressure reduction-time curve): after last administration
Protocol: (§1) Spontaneously hypertensive rats (SHR), male, are provided by Beijing Vital River Laboratory Animal Technology Co., Ltd. The number of animal production license is SCXK (Jing) 2007-0001. Animals are raised in an observation room at the room temperature of 25±2° C. controlled by central air-conditioning system and with artificial lighting of 12 h/day. The animals are raised in separate cages sized 43×27×18 cm with 4 animals for each cage. The rats are free access to water and are fed with block fodder everyday, and the water supply is refreshed once a day. The temperature of the room for measuring the blood pressure is 26±2° C.
(§2) The blood pressure is measured by Tail-Cuff method and the hear rate is measured according to the pulse frequency. Animals are pre-trained for the blood pressure measurement for more than 2 weeks so as to adapt to the environment of measurement. Animals are placed in a isothermal bag at 37° C. to be prewarmed for 5 to 10 min for formal measurement. Blood pressures of the rats are measured from tail arteries for 2 to 3 times at rest states, and an average value is taken as each blood pressure measured value. All data are collected and preserved by a computer.
SHRs with systolic blood pressures (SBPs) >190 mmHg are selected for experiment.
Rats are randomly divided into 14 groups according to their blood pressures with each group having 7 rats. Animals are fasted overnight and measured for the blood pressure of pre-administration at the day of experiment, and then administered drugs in accordance with the following method:
The single-drug group is intragastrically administered candesartan (Can) or chlorthalidone (Chl), with the dosage of Can of 0.36 mg/kg and the dosages of Chl of 0.0675, 0.36, 0.54, 0.72, 1.125 and 2.25 mg/kg respectively;
The pharmaceutical composition is administered with 6 different doses (denoted by F1, F2, F3, F4, F5 and F6 respectively). Specifically, the ratios of the dosages of Can+Chl in all pharmaceutical compositions are:
The administration volumes are all 5 ml/kg.
Rats are continuously administered for 8 days. SBPs are measured 2, 4, 8, 12 and 24 hours after the last administration. The area under blood pressure reduction-time curve from 0 to 24 h (AUC0-24) and the maximum blood pressure reduction value are calculated.
(§3) The calculated results are expressed as mean±standard error ( x±SE); statistical treatment is performed using unpaired t test between groups to compare the significance of the average difference; the interaction between drugs are determined by using factorial analysis of variance, and P<0.05 means the difference has statistical significance.

[3] = test system: Spontaneously hypertensive rats (SHR); assay: SBP of SHR by Tail-Cuff method, first administration and continuous administration for 14 days (Examples 8-12); type: in vivo, rat; conditions: for AUC0-24h: after first administration
Protocol: as §1, §2
SHRs with systolic blood pressures (SBPs)>190 mmHg are selected for experiment.
Rats are randomly divided into 20 groups according to their blood pressures with each group having 8-10 rats. Animals are fasted overnight and measured for the blood pressure of pre-administration at the day of experiment, and then administered drugs in accordance with the following method:
The single-drug group is intragastrically administered candesartan (Can) or chlorthalidone (Chl), with the dosage of Can of 0.1, 0.2, 0.4 mg/kg respectively and the dosage of Chl of 0.3125, 0.625, 1.25 mg/kg respectively;
According to the clinical single-drug specification, the ratios of Can+Chl are set as follows:
For the ratio of Can:Chl=1:6.25, one dose of 0.1+0.625 mg/kg is set;
For the ratio of Can:Chl=1:3.125, two doses of 0.2+0.625 and 0.4+1.25 mg/kg are set;
For the ratio of Can:Chl=1.28:1, one dose of 0.4+0.3125 mg/kg is set;
For the ratio of Can:Chl=2.56:1, one dose of 0.4+0.15625 mg/kg is set;
The administration volumes are all 5 mL/kg. Rats are continuously administered for 14 days. SBPs are measured 2, 4, 8, 12 and 24 hours after the first administration. On the day of 3, 7, 14 days after administration, the blood pressures are measured before administration and 5 hours after administration. Areas under blood pressure reduction-time curve from 0 to 24 h and from 0 to 14 days (AUC0-24h, AUC0-14d) are calculated.
as §3

[4] = clinical studies; cited from earlier work
[5] = listed as candesartan cilexetil

CCOc1nc2cccc(C(=O)O)c2n1Cc1ccc(-c2ccccc2-c2nc(=O)o[nH]2)cc1 [azilsartan]
reduction of SBP compared with the basic value (patients): 12.1-15.9 mmHg

NS(=O)(=O)c1cc2c(cc1Cl)NCNS2(=O)=O [hydrochlorothiazide, Hydrochlorothiazide]
lowering of 24-hour blood pressure [1]: 7.4 mmHg
lowering of night-time blood pressure [1]: 6.4 mmHg

CCOc1nc2cccc(C(=O)OC(C)OC(=O)OC3CCCCC3)c2n1Cc1ccc(-c2ccccc2-c2nn[nH]n2)cc1 (stereo not shown) [Can, Candesartan cilexetil]
maximum reduction of the blood pressure [2]: −19.0 mmHg
maximum reduction of the blood pressure [2, 5]: 19.0 mmHg
SBP ([2]; 2 h after last administration): 192 mmHg
SBP difference value compared with the basic value ([2]; 2 h after last administration): (−11.0 mmHg
SBP ([2]; 4 h after last administration): 185 mmHg
SBP difference value compared with the basic value ([2]; 4 h after last administration): (−17.7 mmHg
SBP ([2]; 8 h after last administration): 196 mmHg
SBP difference value compared with the basic value ([2]; 8 h after last administration): (−7.3 mmHg
SBP ([2]; 12 h after last administration): 199 mmHg
SBP difference value compared with the basic value ([2]; 12 h after last administration): (−3.7 mmHg
SBP ([2]; 24 h after last administration): 204 mmHg
SBP difference value compared with the basic value ([2]; 24 h after last administration): (1.4 mmHg
AUC0-24h (area under blood pressure reduction-time curve) [2]: −127.0 mmHg · h
AUC0-24h (area under blood pressure reduction-time curve) [2, 5]: −127 mmHg · h
SBP ([2]; pre-administration): 201 mmHg
SBP difference value compared with the basic value ([2]; pre-administration): (−2.0 mmHg
period after administration with significant reduction of SBP ([2]; Can 0.36 mg/kg oral): 2 to 8 h
time at which the antihypertensive effect takes effect after administration ([2]; Can 0.36 mg/kg oral): 2 h
AUC0-14d ([3]; Can 0.1 mg/kg i.g. for 14 days): −149.9 mmHg · d
AUC0-24h ([3]; Can 0.1 mg/kg i.g.): −209.1 mmHg · h
AUC0-14d ([3]; Can 0.2 mg/kg i.g. for 14 days): −173.1 mmHg · d
AUC0-24h ([3]; Can 0.2 mg/kg i.g.): −237.7 mmHg · h
AUC0-14d ([3]; Can 0.4 mg/kg i.g. for 14 days): −227.3 mmHg · d
AUC0-24h ([3]; Can 0.4 mg/kg i.g.): −326.0 mmHg · h and −326 mmHg · h

NCCCC[C@H](N[C@@H](CCc1ccccc1)C(=O)O)C(=O)N1CCC[C@H]1C(=O)O [lisinopril]
valid control rate of blood pressure [4]: 61.2%
